Assays:
[1] = Neuroprotection against 6-OHDA-induced oxidative toxicity in PC12 cells (MTT); details: rat
Experimental: (§1) Control cells were incubated in an equivalent volume of DMSO to a final concentration of 0.3%. Neuroprotective effects of the tested compounds on the toxicity induced by 6-OHDA or rotenone in PC12 cells were evaluated as described previously with slight modifications. In brief, cells were pre-treated with the tested compounds or rasagiline at the indicated concentrations for 4 h. Next, they were exposed to 6-OHDA (50 μM) or rotenone (1 μM) for 24 h. In another set of experiments, the influence of HO-1 inhibitor, ZnPP, on the neuroprotective effects of the tested compounds against 6-OHDA-induced oxidative damage was investigated as previously reported. Briefly, the cells were pre-treated with the tested compounds for 4 h and then incubated with 0.2 µM of ZnPP for 30 min. Subsequently, 6-OHDA was added at a final concentration of 50 µM and incubated for 24 h.
After the desired treatment, cell viability was determined by MTT assay as described previously. Briefly, MTT was added to the cells at the final concentration of 0.5 mg/mL, which was followed by incubation for 3 h at 37 °C. […] The absorbance of the dissolved solution was measured at 550 nm using a microplate reader (SpectraMax M2^e, Molecular Devices, Sunnyvale, CA, USA). The cell viability was presented as the percentage of the absorbance measured in the vehicle-treated control cells.

[2] = Neuroprotection against rotenone-induced toxicity in PC12 cells (MTT); details: rat
Experimental: as §1
After the desired treatment, cell viability was determined by MTT assay as described previously. Briefly, MTT was added to the cells at the final concentration of 0.5 mg/mL, which was followed by incubation for 3 h at 37 °C. The supernatants were carefully removed, and then, 300 μL of DMSO was added to each well to dissolve formazan precipitate. The absorbance of the dissolved solution was measured at 550 nm using a microplate reader (SpectraMax M2^e, Molecular Devices, Sunnyvale, CA, USA). The cell viability was presented as the percentage of the absorbance measured in the vehicle-treated control cells.

NCCc1cc(O)c(O)cc1O [6-OHDA, 6-Hydroxydopamine]
viability at 24 h, 50 µM [1]: 50.9 ± 3.1%

C=C(C)[C@H]1Cc2c(ccc3c2O[C@@H]2COc4cc(OC)c(OC)cc4[C@@H]2C3=O)O1 [rotenone, reference compound]
viability at 24 h, 1 μM [2]: 64.4 ± 1.4%
